The results in this text go back to patent US20140309171A1, “MARKER FOR BLOOD COAGULATION” (Universite Catholique De Louvain, priority 2011, published 2014).

Entries after “also recorded” stand apart in the source; their conditions may differ.

Assay [1] relates to Ser79 acetyl-CoA carboxylase (ACC) phosphorylation in human platelets. In words: Western blot of phosphorylated (Ser79) ACC in human platelets. Type of assay: cell-based. Particulars: isolated washed human platelets treated with the agonist. Here is the method: (§1) Washed human platelets (used in in vitro studies). Platelets were obtained from adult healthy volunteers in accordance with the Ethics Commission of our institution (Commission d'Ethique Biomédicale Hospitalo-Facultaire, Université catholique de Louvain). Whole blood was collected with butterfly needle 21G into Sodium Citrate 1:10 solution (S-monovette). Platelet-rich plasma (PRP) was obtained by 15 min centrifugation at 330 g. The platelets pellet was then washed in Tyrode modified buffer (135 mM NaCl, 12 mM NaHCO3, 1 mM Sodium Citrate, 2.9 mM KCl, 0.3 mM Na2HPO4, 1 mM MgCl2, 5 mM D-glucose, 10 mM Hepes, 0.35% bovine serum albumin (BSA), pH 7.4 at 37° C.) and resuspended to a density of 2.5 10^5 platelets/μl for the measurement of intracellular Ca^2+ or platelet aggregation. For Western Blot analysis, PRP with eptifibatide 4 μg/ml (Integriline, GlaxoSmithKline) and ectonucleotidase apyrase (grade I) 0.5 U/ml was layered over a density barrier of iodixanol (Optiprep®) that allowed the erythrocytes and leucocytes to pellet during centrifugation at 350 g for 15 min. The platelets, because of their small size, sediment much more slowly. After centrifugation at 800 g for 10 min, the resulting pellet was resuspended to a density of 2·10^5 platelets/μl in Tyrode modified buffer before treatment and lysis of samples.
(§2) Proteins were separated as described (Miranda et al. 2010. J Clin Invest 103(6): 879-887). The membranes were probed with the following antibodies: α1/α2 AMPK (Kinasource), phospho-ACC (S79) (1:1000; Cell Signalling), phospho-MLC (S19) (1:10000; Sigma-Aldrich), phospho-VASP (T278) (1:1000; ECM Bioscience), cofilin (Cell Signalling), phospho-cofilin (Ser 3) (Cell Signalling). Bound antibodies were detected by enhanced chemiluminescence (Thermofisher). For each gel, control of loading was realized by immunoblotting using an anti-β-actin (1:10000; Santa Cruz Biotechnology), anti-gelsolin (Santa Cruz Biotechnology) or anti-GAPDH (1:1000; Cell Signalling) antibody after the membranes were stripped. Band intensities were quantified by scanning and processing image intensities with the program ImageJ (1.33 for Mac OS X). The quantification of immunoblots presented in results was obtained after normalization using the internal loading control.
Platelets were isolated from human blood samples as described in the experimental procedures. The isolated platelets were treated with increasing doses of thrombin (0.01, 0.03, 0.1, 0.3 and 1 U/ml), the thromboxane A2 (TXA2) receptor agonist U46619 (0.1, 0.3, 1, 3 and 10 μM), collagen (0.5, 1, 2.5, 5 and 10 μg/ml) or ADP (2.5, 5, 10, 25 nd 50 μM) for 1 min. Following treatment, the platelets were lysed and subjected to Western blotting for determining phosphorylation of Ser79 of ACC.

The subject of assay [2] is cofilin Ser3 phosphorylation. Kind of assay: Western blot of cofilin Ser3 phosphorylation in human platelets. Type of assay: cell-based. Particulars: human platelets, 0.1 U/ml thrombin, maximal at 1 min, persisted for 10 min. Here is the method: (§3) Washed human platelets (used in in vitro studies). Platelets were obtained from adult healthy volunteers in accordance with the Ethics Commission of our institution (Commission d'Ethique Biomédicale Hospitalo-Facultaire, Université catholique de Louvain). Whole blood was collected with butterfly needle 21G into Sodium Citrate 1:10 solution (S-monovette). Platelet-rich plasma (PRP) was obtained by 15 min centrifugation at 330 g. The platelets pellet was then washed in Tyrode modified buffer (135 mM NaCl, 12 mM NaHCO3, 1 mM Sodium Citrate, 2.9 mM KCl, 0.3 mM Na2HPO4, 1 mM MgCl2, 5 mM D-glucose, 10 mM Hepes, 0.35% bovine serum albumin (BSA), pH 7.4 at 37° C.) and resuspended to a density of 2.5 10^5 platelets/μl for the measurement of intracellular Ca^2+ or platelet aggregation. […]
(§4) Proteins were separated as described (Miranda et al. 2010. J Clin Invest 103(6): 879-887). […] Bound antibodies were detected by enhanced chemiluminescence (Thermofisher). […] Band intensities were quantified by scanning and processing image intensities with the program ImageJ (1.33 for Mac OS X). The quantification of immunoblots presented in results was obtained after normalization using the internal loading control.

The test system of assay [3] is VASP Thr 278 phosphorylation. In words: Western blot of VASP Thr278 phosphorylation in human platelets. Type of assay: cell-based. The note with it: human platelets, 0.1 U/ml thrombin. Here is the method: as §3, §4
Assay [4] concerns myosin light chain (MLC) Ser 19 phosphorylation. In words: Western blot of MLC Ser19 phosphorylation in human platelets. In kind it is cell-based. Particulars: human platelets, 0.1 U/ml thrombin, significant after 2 min, persisted till 10 min. Here is the method: as §3, §4
For assay [5], the system named is cofilin phosphorylation in platelets from WT mice. Kind of assay: Western blot of cofilin phosphorylation in murine platelets. Type of assay: cell-based, mouse. The note with it: thrombin 0.05 U/ml. Here is the method:
(§5) Eight- to 12-week-old mice were bled under sodium pentobarbital anesthesia (25-35 mg·kg^−1) from the retroorbital plexus. Mouse blood was collected in a 1/10 ACD solution (12 mM citric acid, 15 mM sodium citrate, 25 mM glucose) with ectonucleotidase apyrase (grade I) 0.5 U/ml. PRP was obtained by centrifugation at 800 g for 5 s followed by 5 min at 150 g. PRPs from three animals were pooled. Platelets were washed in Tyrode modified buffer and resuspended to a density of 2.5 10^5 platelets/μl for the measurement of platelet aggregation and for Western Blot analysis. At least three independent experiments were performed on PRP from different pools.
as §2, with “For each gel, control of loading was realized by immunoblotting using an anti-β-actin (1:10000; Santa Cruz Biotechnology), anti-gelsolin (Santa Cruz Biotechnology) or anti-GAPDH (1:1000; Cell Signalling) antibody after the membranes were stripped.” left out

The subject of the next assay is washed human platelets. In words: Platelet aggregation, light transmission (Chrono-Log Aggregometer). In kind it is cell-based. The note with it: 0.025 U/ml thrombin alone. Here is the method:
as §1
Light transmission during thrombin-induced platelet aggregation in human and murine PRP was recorded with a Chrono-Log Aggregometer at 37° C., under stirring condition (1200 crpm). The platelet suspension was incubated with dimethyl sulfoxide (DMSO, vehicle) or STO-609 (10 μM, Tocris) for 2 min before the addition of the thrombin (+/−0.03 U/ml). CaCl2 2 mM was added prior to the agonists.
To evaluate the potential implication of CaMKKβ in platelet aggregation, washed human platelets were pre-incubated for 2 min with 10 μM STO-609, prior to treatment with thrombin or ADP.

Assay [6] concerns MLC phosphorylation in platelets from WT mice. Kind of assay: Western blot of MLC phosphorylation in murine platelets. Type of assay: cell-based, mouse. The note with it: thrombin 0.05 U/ml. The protocol:
as §5
as §2, with “For each gel, control of loading was realized by immunoblotting using an anti-β-actin (1:10000; Santa Cruz Biotechnology), anti-gelsolin (Santa Cruz Biotechnology) or anti-GAPDH (1:1000; Cell Signalling) antibody after the membranes were stripped.” left out

The test system of assay [7] is VASP phosphorylation in platelets from WT mice. In words: Western blot of VASP phosphorylation in murine platelets. In kind it is cell-based, mouse. Particulars: thrombin 0.05 U/ml. The protocol: as §5
as §2, with “For each gel, control of loading was realized by immunoblotting using an anti-β-actin (1:10000; Santa Cruz Biotechnology), anti-gelsolin (Santa Cruz Biotechnology) or anti-GAPDH (1:1000; Cell Signalling) antibody after the membranes were stripped.” left out

A further assay concerns AMPK. In words: AMPK enzyme assay after immunoprecipitation from platelet extracts. Type of assay: cell-based. Particulars: human platelets treated with 0.1 U/ml thrombin. The protocol:
AMPK was immunoprecipitated with 10 μg of α1-AMPK or α2-AMPK antibodies (Kinasource) from 50 μg of platelet extracts and assayed in a final volume of 50 μl Hepes 50 mM, pH 7.2, with 0.2 mM SAMS peptide (Substrate for AMP-activated Protein Kinase, Tocris Bioscience), 0.2 mM adenosine 5′-monophosphate (AMP), and 0.1 mM [^32P]MgATP (specific radioactivity: 1000 cpm/pmol; Perkin Elmer) at 30° C. Aliquots (10 μl) were removed and spotted onto Whatman P81 papers for measurement of ^32P incorporation. One unit of protein kinase activity corresponds to the incorporation of 1 nmol of phosphate into the appropriate peptide substrate per min under the assay conditions.
AMPK was immunoprecipitated with anti-α1- and anti-α2-AMPK antibodies prior to AMPK assay. The AMPK catalytic α1-subunit isoform accounted for the total AMPK activity in platelets (FIG. 1B), confirming the immunoblotting results.

For assay [8], the system named is blood coagulation. Kind of assay: Activated partial thromboplastin time (aPTT) in cardiac surgery patients. Type of assay: in vivo, human. Here is the method:
(§6) A blood sample was drawn during CPB. […] ACT was measured at the bedside of the patients: a sample of blood was drawn, transferred into an appropriate test vial and the clotting time was measured. The second sample was taken 4 h after surgery and the coagulation was assessed in the same time (activated partial thromboplastin time, apTT; thrombin time, TT). Thrombin time (Thromboclotin™, Siemens, Marburg, Germany) and activated partial thromboplastin time (Platelin L; bioMerieux, France) were measured in a tube containing 0.129 M of trisodium citrate and determined using a coagulation device (MDA II coagulation analyzeer; bioMérieux). After surgery, a chest tube was inserted and a closed chest drainage system was attached to promote drainage of air and fluid. Bleeding was evaluated by the amount of blood collected in the chest tube of drainage over a period of 6 h after admission in intensive cares.

Assay [9] has as its system blood coagulation. Kind of assay: Thrombin time (TT) in cardiac surgery patients. In kind it is in vivo, human. Here is the method:
as §6

Assay [10] is described as follows: Post-operative bleeding (chest tube drainage) in cardiac surgery patients. In kind it is in vivo, human. Particulars: patient 6, after restoration of coagulation by protamine administration. The protocol:
as §6

In assay [11] the test system is blood coagulation. Kind of assay: Activated coagulation time (ACT) in cardiac surgery patients. Type of assay: in vivo, human. The protocol:
as §6

[12] abbreviates: patient 6, after protamine injection.
Setting [13] is: patient 1, during surgery, UFH 17000 units.
The mark [14] stands for this setting: patient 3, during surgery, UFH 25500 units.
Where [15] appears, read: patient 4, during surgery, UFH 10000 units.
Setting [16] is: patient 5, during surgery, UFH 25000 units.
Setting [17] is: patient 6, during surgery, UFH 41000 units.
Where [18] appears, read: n = 29 patients, during surgery, after 47086±17766 UI UFH.
Where [19] appears, read: patient 2, during surgery, UFH 33000 units.

For the compound `Nc1ncnc2c1ncn2[C@@H]1O[C@H](COP(=O)(O)OP(=O)(O)O)[C@@H](O)[C@H]1O` [ADP, adenosine diphosphate], the “Ser79 ACC phosphorylation induced by platelet agonist” value (shortened to “Ser79 ACC phosphorylation induced”) in assay [1] was “not observed; also recorded: not lead to ACC phosphorylation; also recorded: failed to increase”.

In the case of thrombin, the “cofilin phosphorylation in Ser3 induced by agonist” value in assay [2] is “increase”. The “Ser79 ACC phosphorylation induced” value in assay [1] is given as “increased; also recorded: specifically induced”. Also, the “VASP phosphorylation on Thr 278 induced by agonist” value in assay [3] is listed as “significant increased phosphorylation”. Moreover, the “MLC Ser 19 phosphorylation induced by agonist” value in assay [4] is listed as “increase”. The “phosphorylation of cofilin induced by agonist” value in assay [5] is given as “increase”. For the same compound, the “platelet aggregation, % of aggregation” value with washed human platelets is 69±3%. Besides, the “phosphorylation of MLC induced by agonist” value in assay [6] is “increase”. For the same compound, the “phosphorylation of VASP induced by agonist” value in assay [7] was “increase”. In addition, the AMPK activation result with AMPK is “led to AMPK activation; also recorded: induces AMPK activation”.

In the case of collagen, in [1], the “Ser79 ACC phosphorylation induced” value is “not observed; also recorded: failed to increase”.

In turn, protamine yielded an aPTT in the assay on blood coagulation [8] (setting [12]) of 27 s. The compound also yielded a TT with blood coagulation [9] (setting [12]) of 30 s. Moreover, the Bleeding result in [10] is given as “controlled”.

In the case of unfractionated heparin [UFH], the aPTT is listed as over 180 s in the assay on blood coagulation [8] (setting [13]); over 180 s in the assay with blood coagulation [8] (patient 2, 4 h after surgery, UFH 33000 units); over 180 s in the assay on blood coagulation [8] (setting [14]); over 180 s with blood coagulation [8] (setting [15]); over 180 s with blood coagulation [8] (setting [16]); over 180 s with blood coagulation [8] (setting [17]). Also, the “TT, mean” value with blood coagulation [9] (setting [18]) is over 120 s; with blood coagulation [9] (patients 1-6, during surgery, after 25250±11000 UI UFH) it was over 120 s. The TT in the assay on blood coagulation [9] (setting [13]), with blood coagulation [9] (setting [19]), in the assay with blood coagulation [9] (setting [14]), in the assay on blood coagulation [9] (setting [15]), in the assay with blood coagulation [9] (setting [16]) and with blood coagulation [9] (setting [17]) was over 120 s throughout. Moreover, the “ACT, mean” value with blood coagulation [11] (mean of patients 1-6, during surgery, after 25250±11000 UI UFH) came out at 568 ± 65 s; in the assay on blood coagulation [11] (setting [18]), 594 ± 100 s. For the same compound, the ACT in the assay on blood coagulation [11] (setting [13]) turned out to be 485 s; in the assay with blood coagulation [11] (setting [19]), 523 s; with blood coagulation [11] (setting [14]) it was 635 s; in the assay with blood coagulation [11] (setting [15]), 498 s; in the assay on blood coagulation [11] (setting [16]), 698 s; in the assay on blood coagulation [11] (setting [17]), 568 s.

With `CCCCC[C@H](O)/C=C/[C@@H]1[C@@H](C/C=C\CCCC(=O)O)[C@H]2CO[C@@H]1C2` [U46619], the “Ser79 ACC phosphorylation induced” value in assay [1] is on record as “not observed; also recorded: failed to increase”.
